Source: patent publication US20260256712A1, “COMPOUNDS FOR INHIBITING GRAM-POSITIVE BACTERIA” (priority 2022, published 2026)
Entries after “also recorded” stand apart in the source; their conditions may differ.

Experiments:
Gram-negative bacteria = test: Drug susceptibility assay (MIC), Gram-negative bacteria; type: cell-based
[1] = Intraperitoneal administration in mice; type: in vivo; conditions: 10 mg/ml
[2] = test system: Cy3/Cy5-labelled oligonucleotides; test: Counterscreen assay excluding quenching (Cy3/Cy5 oligonucleotide FRET); conditions: 50 nM of each oligonucleotide
Procedure: Oligonucleotides were purchased from Integrated DNA Technologies:
In the assay, a 50 nM final concentration of each oligonucleotide was used.
Incubation buffer: 70 mM HEPES-KOH (pH 7.6), 52 mM ammonium acetate, 8 mM magnesium chloride, 30 mM potassium chloride and 2.6% glycerol. A 96-well black, clear bottom microplate was used and read the plate was read using EnVision multilabel plate reader (PerkinElmer) having the same optical filters and parameters as described in Example 2.

mycobacteria = test: Drug susceptibility assay (MIC), mycobacteria; type: cell-based
Pseudomonas aeruginosa = test: Bacterial growth assay, Pseudomonas aeruginosa; type: cell-based
Procedure: (§1) The culture was diluted again 1/500 in 1 ml of fresh media with presence of increasing concentrations of tested compound or 1% DMSO as a control.

B. subtilis IS-75 = test: Bacterial growth / viable count assay, B. subtilis; type: cell-based, Bacillus subtilis
Procedure: as §1

E. coli strains = test: Bacterial growth assay, E. coli; type: cell-based, Escherichia coli
Procedure: as §1

E. coli DH5α = test: Zone inhibition assay (ZIA), E. coli
[3] = test system: ternary complex between Cy5-EF-Tu:GTP and Cy3-Phe-tRNAPhe; test: EF-Tu:tRNA FRET assay (qHTS and secondary FRET assay); type: biochemical, E. coli; conditions: online and offline LOPAC testing
Source text: Upon formation of functional ternary complex between Cy5-EF-Tu:GTP and Cy3-Phe-tRNAPhe, fluorescence energy transfer (FRET) occurs between Cy3 and Cy5 fluorophores located within Förster radius (~17 Å) when Cy3 is excited at 532 nm, and as a result the complex emits light at 665 nm. Presence of inhibitors of the ternary complex prevents complex from forming, thereby reducing fluorescence intensity at 665 nm.
Inhibitors of EF-Tu:tRNA translation were identified using this in vitro FRET system. Quantitative high throughput screening (qHTS) was performed on the LOPAC library containing 1,280 chemicals to identify potential leads for antibiotic development. […]
Equipment: EnVision 2104 Multilabel Plate Reader (PerkinElmer) with excitation optical filter 2100-5050 Bodipy TMR FR 531 nm and emission optical filter 2100-5770 Cy5 685 nm. […]
All solutions were prepared fresh in assay buffer consisting of 70 mM HEPES-KOH (pH7.6), 52 mM ammonium acetate, 8 mM magnesium chloride, 30 mM potassium chloride, and 2.6% glycerol. […] FRET was then detected using 1) a ViewLux high-throughput microplate imager (PerkinElmer) equipped with Ex: 525/20 and Em: 671/8 filters; or 2) an Envision Multimode plate reader (PerkinElmer) equipped with Ex: 530/25 and Em: 665 filters. Assay performance, as calculated by Z′ factor as described by Zhang et al (J Biomol Screen, 1999), was favorable for the Envision plate reader. […]

[4] = test system: USA300 methicillin-resistant Staphylococcus aureus (MRSA); type: in vivo, C57Bl/6J mice; conditions: for bacterial counts (punch biopsies) / dermonecrosis: topical ointment daily, 0.2 mg drug; for dermonecrosis: first experiment
[5] = Cytotoxicity assay (CellTiter 96 AQueous One Solution); type: cell-based; conditions: African green monkey, Vero cells, read-out: Cytotoxicity CC 50
Procedure: Cytotoxicity assay. Compounds were tested for cytotoxicity against mammalian Vero cells using the CellTiter 96 AQueous One Solution Assay kit (Promega). Vero cells were seeded in 96-well plates at a density of 2×10^4 cells per well, and the plates were incubated for 4 h at 37° C. to allow attachments of the Vero cells. Chemical compounds being tested were then added to the wells starting from a final concentration of 50 μg/mL and making 12 1:2 dilutions. Cells were incubated for 72 h at 37° C., after which 20 μL of freshly prepared MTS:PMS reagents was added to each well. The plates were incubated for 2 h and then read at an absorbance of 490 nm.

[6] = test system: Staphylococcus aureus strains including MRSA; test: Drug susceptibility assay (MIC), Staphylococcus aureus; type: cell-based; conditions: including the MRSA strain
Procedure: Drug susceptibility assays. Experiments to determine the minimum inhibitory concentration (MIC) of RR-THC for bacterial growth were performed in 96-well microtiter plates. A DMSO stock solution of each compound was added to the first column and serially diluted across the columns of the plate. The last column of the plate contained no drug and served as a no-drug control. Overnight cultures of the bacterium being tested (MRSA ATCC 43300, […], or the aforementioned VRSA/VISA strains) were diluted 1000-fold, and 100 μL of the diluted culture (appr. 2×10^3 cells) was used as an inoculum in each well. MICs were determined by visual inspection looking for a pellet after 18 h incubation at 37° C. and centrifugation.

B. subtilis 1S-75 = test: Zone inhibition assay (ZIA), B. subtilis; type: cell-based, Bacillus subtilis

Compound	sensitivity in MIC assay, Gram-negative bacteria (Gram-negative bacteria)	toxicity upon intraperitoneal administration [1]	change of FRET in quenching counterscreen [2]	sensitivity in MIC assay, mycobacteria (mycobacteria)	inhibition of bacterial growth, Pseudomonas aeruginosa (Pseudomonas aeruginosa)	colony formation of B. subtilis on agar plate (B. subtilis IS-75; 10 μM added to the medium in an agar plate)	inhibition at 5 µM (B. subtilis IS-75; Bacillus subtilis, IS75, 5 μM, cells grown in test tubes) [%]	inhibition of bacterial growth, E. coli strains (E. coli strains)	zone inhibition result in words, E. coli (E. coli DH5α)	effect on Cy5-EF-Tu acceptor fluorescence emission in the FRET assay [3]	dermonecrosis, repetition of the experiment ([4]; compared to controls but not compared to the mupirocin treated group)	bacterial counts (punch biopsies) [4]	dermonecrosis [4]	CC50 at 72 h [5] [µM]	sensitivity in MIC assay, three Staphylococcus aureus strains [6]	zone inhibition result in words, gram-positive bacteria (B. subtilis) (B. subtilis 1S-75)
CC[C@@H]1Cc2cc(O)ccc2C2=C1c1ccc(O)cc1C[C@H]2CC [RR-THC, (R,R)-tetrahydrochrysene]	not sensitive	a level of toxicity observed	did not significantly change FRET	not sensitive	No inhibition	colonies did not form	~97	No inhibition	did not inhibit	significantly diminished; also recorded: effectively decreased Cy5-EF-Tu acceptor fluorescence emission; also recorded: highly active in both methods	statistically significant decrease in dermonecrosis	no difference apparent	inhibiting dermonecrosis; also recorded: trend to reduced dermonecrosis	> 50	highly sensitive	clear zone indicative of inhibition of cell growth
C/C(=C\C(=O)OCCCCCCCCC(=O)O)C[C@@H]1OC[C@H](C[C@@H]2O[C@H]2[C@@H](C)[C@H](C)O)[C@@H](O)[C@H]1O [mupirocin, reference compound]												trend to reduction	no decrease			
